Data from patent US20080139607A1, “New Compounds” (ASTRAZENECA AB, priority 2006, published 2008).
pIC50: −log10 of the molar value.

Target: Recombinant human PAI-1 (Homo sapiens, UniProt P05121)
Assay: Plasma clot lysis assay for testing of PAI-1 inhibitors (clot lysis in platelet-poor plasma)
Format: biochemical
Details: concentration at which clot lysis time is halved (pIC50=-log IC50); platelet-poor plasma 50%, PAI-1 10-13 ng/mL, t-PA 34 ng/mL, 37° C.
Description: Plasma Clot Lysis Assay for Testing of PAI-1 Inhibitors
CaCl2, p.a. Stock solution 0.1 M in water.
PAI-1 inhibitors dissolved in 100% DMSO.
Experimental Procedures—Clot Lysis in Platelet-Poor Plasma
Blood from healthy fat-fasting volunteers was collected into 0.13 M trisodium citrate, 9 parts blood to 1 part anticoagulant. The tubes were centrifuged at 2000×g, 20 min, at RT. The supernatant, ie, the platelet poor plasma was pooled, aliquoted and frozen at −85° C. until used. At the day of experiment the plasma was thawed in a water bath and temperated to 37° C. All other constituents, except t-PA, were prewarmed to 37° C. To each well on a microtiter plate, 25 μL CaCl2, 25 μL PAI-1 or 25 μL PAI-1 vehicle, 20 μL saline and 5 μL drug or 5 μL vehicle (100% DMSO) were added. Plasma was mixed with cold t-PA solution in the relation 4 parts plasma with 1 part t-PA, just before adding 125 μL of this mixture to each well. The final concentration was 12.5 mM for CaCl2, 10-13 ng/mL for PAI-1, 34 ng/mL for t-PA, and the compounds were tested at a final concentration range 0.1 nM to 0.25 mM. The final plasma concentration was 50%, as a result of the different additives. The plate, covered with a plastic lid, was placed in a Microplate reader (Molecular Devices, US) and gently shaken. The change in turbidity was immediately monitored as a change in absorbance at 405 nm at 37° C. Data points were collected at intervals of 2 min, during a period of 10 h. After finished reading, the absorbance data were transformed into files containing the time and absorbance values for each well. The clot longevity, ie, the time the clot exists, was determined as the time between clot formation, ie, positive Vmax, and clot lysis, ie, negative Vmax. The effect of the drugs, ie, shortening of the longevity for the clot, was expressed as the concentration at which a halving of the clot lysis time was reached, the IC50 (pIC50=−log IC50). Control clot lysis time, set to 100%, was determined in the presence of PAI-1, and the maximal effect, ie, the shortest lysis time that can be reached under defined conditions in this system, in the absence of PAI-1 was set to 0%.
Compounds having a pIC50 higher than 4 were considered as being active.

Chain of Recombinant human PAI-1 (P05121 24-402): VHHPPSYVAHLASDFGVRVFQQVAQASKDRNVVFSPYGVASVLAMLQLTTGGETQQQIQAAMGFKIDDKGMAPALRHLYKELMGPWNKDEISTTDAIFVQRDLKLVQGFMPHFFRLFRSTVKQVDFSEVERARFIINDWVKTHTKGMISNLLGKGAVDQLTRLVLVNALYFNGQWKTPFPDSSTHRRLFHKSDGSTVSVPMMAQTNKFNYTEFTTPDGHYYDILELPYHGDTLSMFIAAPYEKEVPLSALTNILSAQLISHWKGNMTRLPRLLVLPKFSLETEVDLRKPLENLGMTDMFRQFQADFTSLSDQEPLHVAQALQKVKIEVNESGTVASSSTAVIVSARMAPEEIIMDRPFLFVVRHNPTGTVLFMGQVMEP

Structure (SMILES) | pIC50
CCCCCCCc1cc(=O)n2c(c1-c1ccc(F)c(F)c1)SC[C@H]2C(=O)O [Example 1, (3R)-8-(3,4-Difluoro-phenyl)-7-heptyl-5-oxo-2,3-dihydro-5H-thiazolo[3,2-a]pyridine-3-carboxylic acid] | 4.80
CCCCCCCc1cc(=O)n2c(c1-c1ccc(F)c(F)c1)SC[C@H]2C(=O)NS(C)(=O)=O [Example 2, (3R)—N-[8-(3,4-Difluoro-phenyl)-7-heptyl-5-oxo-2,3-dihydro-5H-thiazolo[3,2-a]pyridine-3-carbonyl]-methanesulfonamide] | 5.00
CCCCCCCc1cc(=O)n([C@@H](C)C(=O)O)cc1-c1ccc(F)c(F)c1 [Example 3, (2S)-2-[5-(3,4-Difluoro-phenyl)-4-heptyl-2-oxo-2H-pyridin-1-yl]-propionic acid] | 4.90
CCCCCCCc1cc(=O)n2c(c1-c1ccc(F)c(F)c1)SC[C@@H]2C(N)=O [Example 4, (3S)-8-(3,4-Difluoro-phenyl)-7-heptyl-5-oxo-2,3-dihydro-5H-thiazolo[3,2-a]pyridine-3-carboxylic acid amide] | 4.30
CCCCCCCc1cc(=O)n2c(c1-c1ccc(F)c(F)c1)SC[C@H]2c1nnn[nH]1 [Example 5, (3R)-8-(3,4-Difluoro-phenyl)-7-heptyl-3-(1H-tetrazol-5-yl)-2,3-dihydro-thiazolo[3,2-a]pyridin-5-one] | 4.60
CCCCCCCc1c(-c2ccc(F)c(F)c2)c2n(c(=O)c1C(=O)O)[C@H](C(=O)OC)CS2 [Example 6, (3R)-8-(3,4-Difluoro-phenyl)-7-heptyl-5-oxo-2,3-dihydro-5H-thiazolo[3,2-a]pyridine-3,6-dicarboxylic acid 3-methyl ester] | 4.70
CCCCCCCc1cc(=O)n2c(c1-c1cccc(C(F)(F)F)c1)SC[C@H]2C(=O)O [Example 7, (3R)-7-Heptyl-5-oxo-8-(3-trifluoromethyl-phenyl)-2,3-dihydro-5H-thiazolo[3,2-a]pyridine-3-carboxylic acid] | 4.90
CCCCCCCc1cc(=O)n2c(c1-c1cccc(C(F)(F)F)c1)SC[C@H]2C(=O)NS(=O)(=O)c1ccccc1 [Example 8, (3R)—N-[7-Heptyl-5-oxo-8-(3-trifluoromethyl-phenyl)-2,3-dihydro-5H-thiazolo[3,2-a]pyridine-3-carbonyl]-benzenesulfonamide] | 5.60
CCCCc1cc(=O)n2c(c1-c1cccc(C(F)(F)F)c1)SC[C@H]2C(=O)O [Example 9, (3R)-7-Butyl-5-oxo-8-(3-trifluoromethyl-phenyl)-2,3-dihydro-5H-thiazolo[3,2-a]pyridine-3-carboxylic acid] | 4.40
CCCCCCCc1c(-c2cccc(C(F)(F)F)c2)c2n(c(=O)c1[N+](=O)[O-])[C@H](C(=O)O)CS2 [Example 10, (3R)-7-Heptyl-6-nitro-5-oxo-8-(3-trifluoromethyl-phenyl)-2,3-dihydro-5H-thiazolo[3,2-a]pyridine-3-carboxylic acid] | 5.40
CCCCCCCc1cc(=O)n2c(c1-c1ccc(F)c(F)c1)SC[C@@H]2C(=O)O [Example 11, (3S)-8-(3,4-Difluoro-phenyl)-7-heptyl-5-oxo-2,3-dihydro-5H-thiazolo[3,2-a]pyridine-3-carboxylic acid] | 5.00
CCCCCCc1c(-c2cccc(C(F)(F)F)c2)c2n(c(=O)c1[N+](=O)[O-])[C@H](C(=O)O)CS2 [Example 12, (3R)-7-Hexyl-6-nitro-5-oxo-8-(3-trifluoromethyl-phenyl)-2,3-dihydro-5H-thiazolo[3,2-a]pyridine-3-carboxylic acid] | 4.90
CC(C)CCc1c(-c2cccc(C(F)(F)F)c2)c2n(c(=O)c1[N+](=O)[O-])[C@H](C(=O)O)CS2 [Example 13, (3R)-7-(3-methylbutyl)-6-nitro-5-oxo-8-(3-trifluoromethyl-phenyl)-2,3-dihydro-5H-thiazolo[3,2-a]pyridine-3-carboxylic acid] | 4.90
CCCCCCc1c(-c2cccc(C(F)(F)F)c2)c2n(c(=O)c1N)[C@H](C(=O)O)CS2 [Example 14, (3R)-6-Amino-7-hexyl-5-oxo-8-(3-trifluoromethyl-phenyl)-2,3-dihydro-5H-thiazolo[3,2-a]pyridine-3-carboxylic acid] | 4.90
CCCCc1c(-c2cccc(C(F)(F)F)c2)c2n(c(=O)c1[N+](=O)[O-])[C@H](C(=O)O)CS2 [Example 15, (3R)-7-Butyl-6-nitro-5-oxo-8-(3-trifluoromethyl-phenyl)-2,3-dihydro-5H-thiazolo[3,2-a]pyridine-3-carboxylic acid] | 4.40
CC(C)CCc1c(-c2cccc(C(F)(F)F)c2)c2n(c(=O)c1N)[C@H](C(=O)O)CS2 [Example 16, (3R)-6-Amino-7-(3-methyl-butyl)-5-oxo-8-(3-trifluoromethyl-phenyl)-2,3-dihydro-5H-thiazolo[3,2-a]pyridine-3-carboxylic acid] | 4.10
CCCCCCCc1c(-c2ccc(F)c(F)c2)c2n(c(=O)c1[N+](=O)[O-])[C@H](C(=O)O)CS2 [Example 17, (3R)-8-(3,4-Difluoro-phenyl)-7-heptyl-6-nitro-5-oxo-2,3-dihydro-5H-thiazolo[3,2-a]pyridine-3-carboxylic acid] | 4.70
CCCCCCCCc1cc(=O)n2c(c1-c1cccc(C(F)(F)F)c1)SC[C@H]2C(=O)O [Example 18, (3R)-7-octyl-5-oxo-8-[3-(trifluoromethyl)phenyl]-2,3-dihydro-5H-[1,3]thiazolo[3,2-a]pyridine-3-carboxylic acid] | 5.40
CCCCCCCc1cc(=O)n2c(c1-c1cccs1)SC[C@H]2C(=O)O [Example 19, (3R)-7-heptyl-5-oxo-8-(2-thienyl)-2,3-dihydro-5H-[1,3]thiazolo[3,2-a]pyridine-3-carboxylic acid] | 5.00
CCCCCCCc1cc(=O)n2c(c1-c1c[nH]c3ccccc13)SC[C@H]2C(=O)O [Example 20, (3R)-7-heptyl-8-(1H-indol-3-yl)-5-oxo-2,3-dihydro-5H-[1,3]thiazolo[3,2-a]pyridine-3-carboxylic acid] | 4.90
O=C(O)[C@@H]1CSc2c(-c3ccccc3)c(CCCOc3ccc(Cl)cc3Cl)cc(=O)n21 [Example 21, (3R)-7-[3-(2,4-dichloro-phenoxy)-propyl]-5-oxo-8-phenyl-2,3-dihydro-51H-thiazolo[3,2-a]pyridine-3-carboxylic acid] | 4.90
CCCCCCCc1cc(=O)n2c(c1-c1ccc(F)c(F)c1)S[C@H](OC)[C@H]2C(=O)O [Example 22, (2S,3R)-8-(3,4-difluorophenyl)-7-heptyl-2-methoxy-5-oxo-2,3-dihydro-5H-[1,3]thiazolo[3,2-a]pyridine-3-carboxylic acid] | 5.00
CCCCCCCc1cc(=O)n2c(C(=O)O)csc2c1-c1ccc(F)c(F)c1 [Example 23, 8-(3,4-difluorophenyl)-7-heptyl-5-oxo-5H-[1,3]thiazolo[3,2-a]pyridine-3-carboxylic acid] | 5.00
CCCCCCCc1cc(=O)n2c(c1-c1ccc(F)c(F)c1)S[C@H](c1ccccc1)[C@H]2C(=O)O [Example 24, (2R,3R)-8-(3,4-difluorophenyl)-7-heptyl-5-oxo-2-phenyl-2,3-dihydro-5H-[1,3]thiazolo[3,2-a]pyridine-3-carboxylic acid] | 5.30
CCCCCCCc1cc(=O)n2c(c1-c1ccc(F)c(F)c1)S[C@H](C)[C@H]2C(=O)O [Example 25, (2R,3R)-8-(3,4-difluorophenyl)-7-heptyl-2-methyl-5-oxo-2,3-dihydro-5H-[1,3]thiazolo[3,2-a]pyridine-3-carboxylic acid] | 5.40
